Read-outs that look alike come from different tables or passages of the source.
Key:
[1] = system: LPS-induced NO production in mouse monocytes (RAW); assay: LPS-induced NO production inhibition test, mouse monocytes (RAW); assay type: cell-based; settings: Monocyte, RAW cells, 20 ng/ml LPS, 24 hours, Griess reagent
Description: (§1) Mouse monocytes (RAW) and mouse microglia (BV2) cells were cultured on a 96-well transparent plate (Nunc) in such a way that each of the wells contained 60,000 and 35,000 cells respectively. After 18 hours, when stabilized, the cells were treated with lipopolysaccharide (Sigma, USA, Cat No. L2630) in a morbid state derived from 20 ng/ml of Escherichia coli O111:B4 and 4 different concentrations (50 uM, 12.5 uM, 3.1 uM, and 0.8 uM) of the compounds synthesized according to Examples 1 to 55. Then, the cells were cultured for 24 hours, and a concentration of increased NO was measured. The NO concentration was determined by measuring absorption at a wavelength of 540 nm after a Griess reagent including 0.1% N-(1-naphthyl)ethylenediamine dihydrochloride, 1% sulfanilamide, and 2.5% phosphoric acid were added thereto.

[2] = system: LPS-induced NO production in mouse microglia (BV2); assay: LPS-induced NO production inhibition test, mouse microglia (BV2); assay type: cell-based; settings: BV-2, BV2 cells, 20 ng/ml LPS, 24 hours, Griess reagent
Description: as §1

[3] = system: neuropathic pain (mechanical allodynia) in rats with caudal nerve damage; assay: Pain relief test using animal model (caudal nerve damage neuropathic pain, mechanical allodynia); assay type: in vivo; settings: ip, rat, von Frey, reference concentration 30 mg/kg, read-out: Pain test results (% MPE, 50% tail withdrawal threshold)
Description: Male rats (Sprague-Dawley, 150-200 g, 6-week old, Orient Bio Co., Ltd) were purchased and acclimated in an animal chamber for one week. The animal chamber was alternately turned on and off at a time interval of 12 hours, at a temperature of 22 to 25° C., and in a relative humidity of 40-60%, and water and feed was supplied ad libitum to the rats.
The rats were placed in a round acryl container (5.5 15, 6.5 18 cm, which varied according to the size of body) and only the tails thereof were taken out of the container and placed on a plate. To confirm a pain behavior corresponding to a mechanical stimulus, an up-down method (J. Neurosci. Methods 53:55-63) was performed using a von Frey filament so as to measure “50% tail withdrawal threshold.
During all the steps before surgery, anesthesia was maintained with a mixed gas including 2-3% enflurane and 95% oxygen.
The compounds were each prepared as a solution form by using 5% DMSO, 5% Cremophore, and 90% distilled water on a volumetric basis. Each of the solutions was intraperitoneally administered in a volume of 3 ml per kg of a rat. The concentration of the compounds was controlled according to a compound and the concentration of reference was 30 mg/kg. […]
Anti-allodynic effects of the compounds were described as mean±SEM, and were compared each other by referring to “% MPE (the percentage of maximum possible effect),” and analyzed using one-way ANOVA and Bonferroni's t-test. […] [% MPE=(the threshold with respect to time after the drug treatment−the threshold at 0 hr)/(15−the threshold at 0 hr)×100]

[4] = at 4 hours after intraperitoneal administration
[5] = at 1 hour after intraperitoneal administration

Row | SMILES | IC50 [1] [µM] | IC50 [2] [µM] | inhibition in vivo [3, 4] [%] | inhibition in vivo [3, 5] [%]
1 | O=C(NCc1ccnc(Cl)c1)OC1CCC(COC(=O)N2CCCC2)CC1 (stereo not drawn) [Example 16, pyrrolidine-1-carboxylic acid 4-(2-chloro-pyridin-4-ylmethylcarbamoyloxy)-cyclohexylmethyl ester] | 27.9 | 10.8 | 16.4 | 
2 | O=C(NCc1cccnc1Cl)OC1CCC(COC(=O)N2CCCC2)CC1 (stereo not drawn) [Example 18, pyrrolidine-1-carboxylic acid 4-(2-chloro-pyridin-3-ylmethylcarbamoyloxy)-cyclohexylmethyl ester] | 5.7 | 18.3 |  | 22.5
3 | O=C(Nc1ccncc1)OC1CCC(COC(=O)N2CCCC2)CC1 (stereo not drawn) [Example 20, pyrrolidine-1-carboxylic acid 4-(pyridin-4-ylcarbamoyloxy)-cyclohexylmethyl ester] | 50 | 37.9 | 22 | 
4 | O=C(Nc1ccccn1)OC1CCC(COC(=O)N2CCCC2)CC1 (stereo not drawn) [Example 21, pyrrolidine-1-carboxylic acid 4-(pyridin-2-ylcarbamoyloxy)-cyclohexylmethyl ester] | 15.9 | 44.8 |  | 35.2
5 | O=C(Nc1ccnc(Cl)c1)OC1CCC(COC(=O)N2CCCC2)CC1 (stereo not drawn) [Example 23, pyrrolidine-1-carboxylic acid 4-(2-chloro-pyridin-4-ylcarbamoyloxy)-cyclohexylmethyl ester] | 28.6 | > 50 | 18.7 | 
6 | O=C(NCc1ccncc1)OC1CCC(CNC(=O)N2CCCC2)CC1 (stereo not drawn) [Example 54, pyridin-4-ylmethyl-carbamic acid 4-{[(pyrrolidine-1-carbonyl)-amino]-methyl}-cyclohexyl ester] | 48.7 | > 50 |  | 10.5

More lines, main results first:

Row | IC50 [1] [µM] | IC50 [2] [µM] | SMILES | inhibition in vivo [3, 4] [%] | inhibition in vivo [3, 5] [%]
7 | 29.5 | 12.5 | O=C(NCc1ccc(Cl)nc1)OC1CCC(COC(=O)N2CCCC2)CC1 (stereo not drawn) [Example 17, pyrrolidine-1-carboxylic acid 4-(6-chloro-pyridin-3-ylmethylcarbamoyloxy)-cyclohexylmethyl ester] |  | 5.8
8 | > 50 | > 50 | O=C(NC1CCC(COC(=O)N2CCCC2)CC1)OCc1ccccn1 (stereo not drawn) [Example 40, pyrrolidine-1-carboxylic acid 4-(pyridin-2-ylmethoxycarbonylamino)-cyclohexylmethyl ester] | 11 | 
9 | 50 | > 50 | O=C(NC1CCC(COC(=O)N2CCCC2)CC1)OCc1ccncc1 (stereo not drawn) [Example 42, pyrrolidine-1-carboxylic acid 4-(pyridin-4-ylmethoxycarbonylamino)-cyclohexylmethyl ester] | 57 | 
